Patent US12544374B2, “AZA-quinoline compounds and uses thereof” (Novartis AG, priority 2019, dated 2026)

Assays:
[1] = target: wild type PRC2 (wtPRC2) complex (Homo sapiens (Human), UniProt Q15910); assay: EZH2 LC-MS assay (LC-Qualified); type: biochemical; settings: (a) LC-Qualified assay
Protocol: Representative compounds of the invention were serially and separately diluted 3-fold in DMSO to obtain twelve concentrations. […] Solutions (6 μL) of 80 nM wild type PRC2 (wtPRC2) complex and 60 μM SAM in reaction buffer (20 mM Tris, pH 8.0, 0.1% BSA, 0.01% Triton, 0.5 mM DTT) were added to the wells that were then incubated with the test compound for 20 min. A 6 μL solution of 3 μM of the substrate peptide H3K27me1 (histone H3[21-44]-K27me1-biotin) and 6 μM regulatory peptide H3K27me3 (histone H3[21-44]-K27me3) in reaction buffer was added to initiate each reaction. […] The data were fit to a dose response equation using the program Helios to get the IC50 values of the test compound.

[2] = target: EZH2 (Homo sapiens (Human), UniProt Q15910); assay: ELISA (H3K27 methylation) assay in G401 cell; type: cell-based; settings: (b) ELISA Qualified assay, 48 h
EZH2, sequence (Q15910 whole entry): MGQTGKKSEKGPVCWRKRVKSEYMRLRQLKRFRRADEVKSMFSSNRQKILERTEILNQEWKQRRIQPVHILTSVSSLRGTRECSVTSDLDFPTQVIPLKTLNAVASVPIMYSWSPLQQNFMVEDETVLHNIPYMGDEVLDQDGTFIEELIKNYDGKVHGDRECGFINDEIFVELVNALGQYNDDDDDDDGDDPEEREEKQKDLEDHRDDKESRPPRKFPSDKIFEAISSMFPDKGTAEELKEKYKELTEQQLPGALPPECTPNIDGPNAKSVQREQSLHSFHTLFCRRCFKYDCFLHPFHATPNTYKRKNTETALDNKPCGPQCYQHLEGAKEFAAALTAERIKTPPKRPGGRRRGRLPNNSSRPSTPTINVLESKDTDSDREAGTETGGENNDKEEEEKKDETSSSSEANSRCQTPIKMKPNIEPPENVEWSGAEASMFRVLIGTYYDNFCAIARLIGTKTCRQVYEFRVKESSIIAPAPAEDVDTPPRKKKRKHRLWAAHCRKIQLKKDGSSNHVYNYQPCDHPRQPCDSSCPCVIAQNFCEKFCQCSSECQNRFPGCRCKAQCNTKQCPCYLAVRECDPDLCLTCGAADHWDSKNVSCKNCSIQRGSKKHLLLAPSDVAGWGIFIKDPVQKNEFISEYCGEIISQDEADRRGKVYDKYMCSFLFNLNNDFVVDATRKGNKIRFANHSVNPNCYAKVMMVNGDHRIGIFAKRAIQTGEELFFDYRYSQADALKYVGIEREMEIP
EZH2, sequence (Q15022 whole entry partner): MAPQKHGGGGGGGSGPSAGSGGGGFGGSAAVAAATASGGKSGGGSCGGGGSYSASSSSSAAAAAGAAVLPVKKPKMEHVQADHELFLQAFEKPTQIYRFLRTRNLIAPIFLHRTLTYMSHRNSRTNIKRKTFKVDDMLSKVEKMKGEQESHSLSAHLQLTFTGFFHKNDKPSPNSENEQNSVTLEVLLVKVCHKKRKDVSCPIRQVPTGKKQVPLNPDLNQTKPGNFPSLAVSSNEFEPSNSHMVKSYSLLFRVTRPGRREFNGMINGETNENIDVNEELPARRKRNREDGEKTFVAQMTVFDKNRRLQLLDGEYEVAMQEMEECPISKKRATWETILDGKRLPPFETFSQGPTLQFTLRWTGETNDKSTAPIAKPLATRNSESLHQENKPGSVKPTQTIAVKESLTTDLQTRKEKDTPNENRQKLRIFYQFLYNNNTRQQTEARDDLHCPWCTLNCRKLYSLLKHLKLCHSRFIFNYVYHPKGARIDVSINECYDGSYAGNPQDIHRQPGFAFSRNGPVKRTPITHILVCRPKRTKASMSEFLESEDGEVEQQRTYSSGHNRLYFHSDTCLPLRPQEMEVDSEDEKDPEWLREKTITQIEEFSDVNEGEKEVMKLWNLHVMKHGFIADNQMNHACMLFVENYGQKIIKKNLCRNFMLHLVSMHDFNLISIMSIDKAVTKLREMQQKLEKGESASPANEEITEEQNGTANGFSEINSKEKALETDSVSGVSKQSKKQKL
EZH2, sequence (O75530 whole entry partner): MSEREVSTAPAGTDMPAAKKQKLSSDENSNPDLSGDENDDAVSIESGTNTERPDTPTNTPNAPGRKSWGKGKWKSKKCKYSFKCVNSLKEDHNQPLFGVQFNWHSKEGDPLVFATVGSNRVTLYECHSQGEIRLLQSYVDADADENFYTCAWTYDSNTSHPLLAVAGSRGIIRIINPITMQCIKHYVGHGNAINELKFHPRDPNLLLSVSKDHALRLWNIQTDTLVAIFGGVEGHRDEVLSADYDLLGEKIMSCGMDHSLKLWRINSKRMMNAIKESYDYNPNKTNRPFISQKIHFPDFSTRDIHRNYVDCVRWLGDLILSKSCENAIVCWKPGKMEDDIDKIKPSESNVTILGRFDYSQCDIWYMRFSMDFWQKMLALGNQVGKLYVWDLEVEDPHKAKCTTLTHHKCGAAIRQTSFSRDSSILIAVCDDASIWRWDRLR
EZH2, sequence (Q09028 whole entry partner): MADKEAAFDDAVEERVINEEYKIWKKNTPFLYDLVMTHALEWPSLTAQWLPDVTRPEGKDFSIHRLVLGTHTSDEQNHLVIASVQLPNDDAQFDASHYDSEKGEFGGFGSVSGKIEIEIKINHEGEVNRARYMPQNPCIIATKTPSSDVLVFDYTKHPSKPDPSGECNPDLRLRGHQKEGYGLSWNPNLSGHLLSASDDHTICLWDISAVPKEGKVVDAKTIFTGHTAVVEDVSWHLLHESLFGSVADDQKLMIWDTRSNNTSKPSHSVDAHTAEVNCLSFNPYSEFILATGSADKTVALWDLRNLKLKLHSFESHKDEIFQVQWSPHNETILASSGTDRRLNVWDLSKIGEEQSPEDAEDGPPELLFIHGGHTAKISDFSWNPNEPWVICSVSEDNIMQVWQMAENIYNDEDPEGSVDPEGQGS
Protocol: Representative compounds of the invention were serially and separately diluted 3-fold in DO to obtain a total of eight or twelve concentrations. Then the compounds were added to G401 cell cultured in 384-well plate at 1:500 dilution to obtain the highest concentration of 20 μM. The cells were further cultured for 48 h before ELISA procedure.
ELISA protocol: Cell lysates were transferred to the wells of a 384-well plate and the final volume was adjusted to 50 μL per well with PBS. The plate was sealed, centrifuged at 2,000 rpm for 2 min and incubated at 4° C. for about 16 h. The plate was washed with TBST buffer (1×TBS (10×TBS: 24.2 g Tris (Sigma, T6066), 80 g NaCl (Sigma, S3014) to 1 L of water and adjust pH to 7.6 with HCl) with 0.1% Tween-20). Blocking buffer (TBST, 5% BSA; 50 μL per well) was added and the plate was incubated for 1 h at rt. The blocking buffer was removed and primary antibody was added (30 μL per well). […] The primary antibody was incubated in the plate at rt for 1 h. The wells were washed with TBST and incubated with secondary antibody for 1 h at rt.
After 1 h of incubation at rt, the wells were washed with TBST. […] The signal was read using a PerkinElmer Envision Reader. The H3K27 methylation readouts were normalized using H3 signal and then percentage inhibition was calculated against the samples treated with DO. The data were fit to a dose response curve using the program Helios to get the IC50 values of the test compound.

wild type PRC2 (wtPRC2) complex, sequence (Q15910 whole entry): as the sequence (Q15910 whole entry) above
wild type PRC2 (wtPRC2) complex, sequence (Q15022 whole entry partner): as the sequence (Q15022 whole entry partner) above
wild type PRC2 (wtPRC2) complex, sequence (O75530 whole entry partner): as the sequence (O75530 whole entry partner) above
wild type PRC2 (wtPRC2) complex, sequence (Q09028 whole entry partner): as the sequence (Q09028 whole entry partner) above
wild type PRC2 (wtPRC2) complex, sequence (Q6ZN18 whole entry partner): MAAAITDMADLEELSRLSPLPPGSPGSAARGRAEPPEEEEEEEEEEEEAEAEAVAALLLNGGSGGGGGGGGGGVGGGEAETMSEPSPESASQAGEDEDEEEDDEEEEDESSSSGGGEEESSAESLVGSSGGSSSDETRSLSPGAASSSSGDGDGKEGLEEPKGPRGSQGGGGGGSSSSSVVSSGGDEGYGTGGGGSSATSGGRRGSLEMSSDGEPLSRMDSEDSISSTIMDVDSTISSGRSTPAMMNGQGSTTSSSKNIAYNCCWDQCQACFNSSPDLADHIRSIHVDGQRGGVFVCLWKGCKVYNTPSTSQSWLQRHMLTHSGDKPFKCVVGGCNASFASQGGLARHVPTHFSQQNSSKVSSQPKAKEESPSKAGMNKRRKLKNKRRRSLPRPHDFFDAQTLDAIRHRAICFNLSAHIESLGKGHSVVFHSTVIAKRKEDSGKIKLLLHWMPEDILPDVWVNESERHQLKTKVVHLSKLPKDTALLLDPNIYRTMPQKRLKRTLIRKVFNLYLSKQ

SMILES | IC50 [1] | IC50 [2]
COC1CC(NCc2cnc(NC[C@H]3CC[C@H](Nc4ccc5ccnc(Cl)c5n4)CC3)nc2)C1 (stereo partly drawn) [Compound C32, 8-chloro-N-((1,4-trans)-4-(((5-(((3-methoxycyclobutyl)amino)methyl)pyrimidin-2-yl)amino)methyl)cyclohexyl)-1,7-naphthyridin-2-amine] | 0.079 µM | 0.498 µM
CN(C)C1CCN(C(=O)Cc2cnc(NC[C@H]3CC[C@H](Nc4ccc5ccnc(Cl)c5n4)CC3)nc2)C1 (stereo partly drawn) [Compound C39, 2-(2-((((1,4-trans)-4-((8-chloro-1,7-naphthyridin-2-yl)amino)cyclohexyl)methyl)amino)pyrimidin-5-yl)-1-(3-(dimethylamino)pyrrolidin-1-yl)ethan-1-one] | 0.081 µM | 0.02 µM
O=C(Cc1cnc(NC[C@H]2CC[C@H](Nc3ccc4ccnc(Cl)c4n3)CC2)nc1)N1CCN(CCO)CC1 [Compound C40, 2-(2-((((1,4-trans)-4-((8-chloro-1,7-naphthyridin-2-yl)amino)cyclohexyl)methyl)amino)pyrimidin-5-yl)-1-(4-(2-hydroxyethyl)piperazin-1-yl)ethan-1-one] | 0.046 µM | 0.028 µM
CN1CCN(C(=O)Cc2cnc(NC[C@H]3CC[C@H](Nc4ccc5ccnc(Cl)c5n4)CC3)nc2)CC1 [Compound C43, 2-(2-((((1,4-trans)-4-((8-chloro-1,7-naphthyridin-2-yl)amino)cyclohexyl)methyl)amino)pyrimidin-5-yl)-1-(4-methylpiperazin-1-yl)ethan-1-one] | 0.057 µM | 0.067 µM
O=C(Cc1cnc(NC[C@H]2CC[C@H](Nc3ccc4ccnc(Cl)c4n3)CC2)nc1)NC1CCC1 [Compound C44, 2-(2-((((1,4-trans)-4-((8-chloro-1,7-naphthyridin-2-yl)amino)cyclohexyl)methyl)amino)pyrimidin-5-yl)-N-cyclobutylacetamide] | 0.054 µM | 0.163 µM
CC1(NCCc2cnc(NC[C@H]3CC[C@H](Nc4ccc5ccnc(Cl)c5n4)CC3)nc2)COC1 [Compound C47, 8-chloro-N-((1,4-trans)-4-(((5-(2-((3-methyloxetan-3-yl)amino)ethyl)pyrimidin-2-yl)amino)methyl)cyclohexyl)-1,7-naphthyridin-2-amine] | 0.051 µM | 0.032 µM
O=C(NCc1cnc(NC[C@H]2CC[C@H](Nc3ccc4ccnc(Cl)c4n3)CC2)nc1)C1COC1 [Compound C59, N-((2-((((1,4-trans)-4-((8-chloro-1,7-naphthyridin-2-yl)amino)cyclohexyl)methyl)amino)pyrimidin-5-yl)methyl)oxetane-3-carboxamide] | 0.045 µM | 0.033 µM
CNc1nccc2ccc(N[C@H]3CC[C@H](CNc4ncc(N)cn4)CC3)nc12 [Compound C62, N^2-((1,4-trans)-4-(((5-aminopyrimidin-2-yl)amino)methyl)cyclohexyl)-N^8-methyl-1,7-naphthyridine-2,8-diamine] | 0.149 µM | 0.031 µM
CNc1nccc2ccc(N[C@H]3CC[C@H](CNc4ncc(NC(C)=O)cn4)CC3)nc12 [Compound C63, N-(2-((((1,4-trans)-4-((8-(methylamino)-1,7-naphthyridin-2-yl)amino)cyclohexyl)methyl)amino)pyrimidin-5-yl)acetamide] | 0.096 µM | 0.037 µM
O=C1OCCN1c1cnc(NC[C@H]2CC[C@H](Nc3ccc4ccnc(Cl)c4n3)CC2)nc1 [Compound C64, 3-(2-((((1,4-trans)-4-((8-chloro-1,7-naphthyridin-2-yl)amino)cyclohexyl)methyl)amino)pyrimidin-5-yl)oxazolidin-2-one] | 0.053 µM | 0.054 µM
COC(=O)N(C)c1cnc(NC[C@H]2CC[C@H](Nc3ccc4ccnc(Cl)c4n3)CC2)nc1 [Compound C65, Methyl (2-((((1,4-trans)-4-((8-chloro-1,7-naphthyridin-2-yl)amino)cyclohexyl)methyl)amino)pyrimidin-5-yl)(methyl)carbamate] | 0.059 µM | 0.065 µM
Nc1cnc(NC[C@H]2CC[C@H](Nc3ccc4ccnc(OC(F)F)c4n3)CC2)nc1 [Compound C66, N^2-(((1,4-trans)-4-((8-(difluoromethoxy)-1,7-naphthyridin-2-yl)amino)cyclohexyl)methyl)pyrimidine-2,5-diamine] | 0.204 µM | 0.16 µM
CC(CO)Oc1cnc(NC[C@H]2CC[C@H](Nc3ccc4ccnc(Cl)c4n3)CC2)nc1 (stereo partly drawn) [Compound C68, 2-((2-((((1,4-trans)-4-((8-chloro-1,7-naphthyridin-2-yl)amino)cyclohexyl)methyl)amino)pyrimidin-5-yl)oxy)propan-1-ol] | 0.049 µM | 0.018 µM

These reach a lower IC50 [1]. Values come first.

IC50 [1] | IC50 [2] | SMILES
0.017 µM | 0.007 µM | O=S1(=O)CCN(Cc2cnc(NC[C@H]3CC[C@H](Nc4ccc5ccnc(Cl)c5n4)CC3)nc2)CC1 [Compound C30, 4-((2-((((1,4-trans)-4-((8-chloro-1,7-naphthyridin-2-yl)amino)cyclohexyl)methyl)amino)pyrimidin-5-yl)methyl)thiomorpholine 1,1-dioxide]
0.026 µM | 0.06 µM | Clc1nccc2ccc(N[C@H]3CC[C@H](CNc4ncc(CNCC5COC5)cn4)CC3)nc12 [Compound C31, 8-chloro-N-((1,4-trans)-4-(((5-(((oxetan-3-ylmethyl)amino)methyl)pyrimidin-2-yl)amino)methyl)cyclohexyl)-1,7-naphthyridin-2-amine]
0.042 µM | 0.044 µM | OC1CC(NCc2cnc(NC[C@H]3CC[C@H](Nc4ccc5ccnc(Cl)c5n4)CC3)nc2)C1 (stereo partly drawn) [Compound C33, 3-(((2-((((1,4-trans)-4-((8-chloro-1,7-naphthyridin-2-yl)amino)cyclohexyl)methyl)amino)pyrimidin-5-yl)methyl)amino)cyclobutan-1-ol]
0.024 µM | 0.029 µM | O=C(Cc1cnc(NC[C@H]2CC[C@H](Nc3ccc4ccnc(Cl)c4n3)CC2)nc1)N1CC(O)C1 [Compound C38, 2-(2-((((1,4-trans)-4-((8-chloro-1,7-naphthyridin-2-yl)amino)cyclohexyl)methyl)amino)pyrimidin-5-yl)-1-(3-hydroxyazetidin-1-yl)ethan-1-one]
0.035 µM | 0.031 µM | O=C(Cc1cnc(NC[C@H]2CC[C@H](Nc3ccc4ccnc(Cl)c4n3)CC2)nc1)N1CCNCC1 [Compound C41, 2-(2-((((1,4-trans)-4-((8-chloro-1,7-naphthyridin-2-yl)amino)cyclohexyl)methyl)amino)pyrimidin-5-yl)-1-(piperazin-1-yl)ethan-1-one]
0.012 µM | 0.013 µM | OCCc1cnc(NC[C@H]2CC[C@H](Nc3ccc4ccnc(Cl)c4n3)CC2)nc1 [Compound C46, 2-(2-((((1,4-trans)-4-((8-chloro-1,7-naphthyridin-2-yl)amino)cyclohexyl)methyl)amino)pyrimidin-5-yl)ethan-1-ol]
0.039 µM | 0.027 µM | Clc1nccc2ccc(N[C@H]3CC[C@H](CNc4ncc(CCNC5COC5)cn4)CC3)nc12 [Compound C48, 8-chloro-N-((1,4-trans)-4-(((5-(2-(oxetan-3-ylamino)ethyl)pyrimidin-2-yl)amino)methyl)cyclohexyl)-1,7-naphthyridin-2-amine]
0.023 µM | 0.027 µM | CCN(CCC#N)C(=O)Cc1cnc(NC[C@H]2CC[C@H](Nc3ccc4ccnc(Cl)c4n3)CC2)nc1 [Compound C50, 2-(2-((((1,4-trans)-4-((8-chloro-1,7-naphthyridin-2-yl)amino)cyclohexyl)methyl)amino)pyrimidin-5-yl)-N-(2-cyanoethyl)-N-ethylacetamide]
0.038 µM | 0.117 µM | O=C(NCc1cnc(NC[C@H]2CC[C@H](Nc3ccc4ccnc(Cl)c4n3)CC2)nc1)C1CCN1 (stereo partly drawn) [Compound C58, N-((2-((((1,4-trans)-4-((8-chloro-1,7-naphthyridin-2-yl)amino)cyclohexyl)methyl)amino)pyrimidin-5-yl)methyl)azetidine-2-carboxamide]
0.022 µM | 0.021 µM | CNc1nccc2ccc(N[C@H]3CC[C@H](CNc4ncc(C#N)cn4)CC3)nc12 [Compound C60, 2-((((1,4-trans)-4-((8-(methylamino)-1,7-naphthyridin-2-yl)amino)cyclohexyl)methyl)amino)pyrimidine-5-carbonitrile]
0.029 µM | 0.036 µM | Clc1nccc2ccc(N[C@H]3CC[C@H](CNc4ncc(-c5nnc[nH]5)cn4)CC3)nc12 [Compound C67, N-((1,4-trans)-4-(((5-(4H-1,2,4-triazol-3-yl)pyrimidin-2-yl)amino)methyl)cyclohexyl)-8-chloro-1,7-naphthyridin-2-amine]
